Read-outs that look alike come from different tables or passages of the source.

Experiment [1] concerns A375 cells. Description: cells. The note with it: Homo sapiens, A-375, read-out: A375 Viability EC50.
The test system of experiment [2] is 290 distinct kinases tested excluding mutant variants (321 in the larger panel).
Method: Competition binding assays used herein were developed, validated and performed as described in Fabian et al., Nature Biotechnology 2005, 23, 329-336. […] The liganded beads were blocked with excess biotin and washed with blocking buffer (SeaBlock (Pierce), 1% BSA, 0.05% Tween 20, 1 mM DTT) to remove unbound ligand and to reduce non-specific binding. […] Test compounds were prepared as 100× stocks in DMSO and rapidly diluted into the aqueous environment. DMSO was added to control assays lacking a test compound. Primary screen interactions were performed in polypropylene 384-well plates in a final volume of 34 μt, while Kd determinations were performed in polystyrene 96-well plates in a final volume of 135 pt. […] The kinase concentration in the eluates was measured by quantitative PCR. Each kinase was tested individually against each compound. Kds were determined using eleven serial threefold dilutions. A selectivity score, which is a quantitative measure of selectivity of a compound against a panel of enzymes, may be calculated for a compound by dividing the number of enzymes for which a compound meets a set criteria, (for example, a binding constant of 100 nM or less), by the total number of enzymes tested. […] (Note, for those compounds tested in a larger kinase panel, as indicated by an asterisk (*) next to the S35 score, the divisor is 321 (i.e. the larger panel contains 321 distinct kinases, excluding mutant variants.)).
Experiment [3] deals with MEK1 phosphorylation in the A375 human melanoma cell line. Description: cells. To be noted: A-375, read-out: pMEK IC50.
Method: A375 cells (from American Type Culture Collection) were plated at 50,000 cells per well in DMEM (Mediatech) with 10% fetal bovine serum (Omega Scientific) into a 96 well plate and incubated overnight in a 37° C. incubator with 10% CO2. The cells were then washed with PBS and the medium replaced with 0.5% FBS for incubation overnight. […] The cells were incubated with compound or control for two hours at 37° C. The compound solution was aspirated off and the cells washed with cold PBS. […] The plate was centrifuged for 30 minutes to pellet out the cell debris. The cleared lysates were transferred to a 96-well Nunc plate and the ELISA protocol described by the manufacturer in Catalog #KHO0321 or KHO0291 was followed.
The target in experiment [4] is RAF kinases (Homo sapiens, UniProt P15056). Description: biochemical.
Sequence of RAF kinases (Homo sapiens, UniProt P15056) (P15056 whole entry): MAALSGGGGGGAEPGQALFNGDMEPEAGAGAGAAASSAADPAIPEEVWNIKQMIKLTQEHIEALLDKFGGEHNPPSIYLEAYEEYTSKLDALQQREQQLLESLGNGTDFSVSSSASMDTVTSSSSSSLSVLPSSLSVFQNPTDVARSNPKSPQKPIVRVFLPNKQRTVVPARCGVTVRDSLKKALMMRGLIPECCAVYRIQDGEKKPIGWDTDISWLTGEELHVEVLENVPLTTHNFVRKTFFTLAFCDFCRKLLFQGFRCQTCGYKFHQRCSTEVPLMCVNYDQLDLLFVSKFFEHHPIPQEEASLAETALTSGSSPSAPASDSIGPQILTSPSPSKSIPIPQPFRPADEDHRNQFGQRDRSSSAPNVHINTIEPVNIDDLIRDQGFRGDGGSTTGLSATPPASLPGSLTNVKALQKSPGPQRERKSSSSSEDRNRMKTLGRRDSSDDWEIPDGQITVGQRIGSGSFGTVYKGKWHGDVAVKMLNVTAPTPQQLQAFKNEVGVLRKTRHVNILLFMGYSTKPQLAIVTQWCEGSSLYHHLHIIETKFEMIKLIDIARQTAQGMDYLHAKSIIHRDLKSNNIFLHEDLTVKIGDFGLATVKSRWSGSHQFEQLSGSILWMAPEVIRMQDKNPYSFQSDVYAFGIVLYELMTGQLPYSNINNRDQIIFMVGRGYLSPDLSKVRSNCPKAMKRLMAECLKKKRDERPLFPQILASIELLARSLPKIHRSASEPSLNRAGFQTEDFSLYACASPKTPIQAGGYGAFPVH
Experiment [5] has as its target T1, RAF kinases (Homo sapiens, UniProt P15056, V600E). Description: biochemical.
Experiment [6] concerns the target RAF kinases (Homo sapiens, UniProt P04049). Description: biochemical.
The target of experiment [7] is T1, RAF kinases. The note with it: read-out: BRAF V600E Kd; BRAF V600E.
The mark [8] stands for this setting: no asterisk: panel of 290 distinct kinases.

Sequence of RAF kinases (Homo sapiens, UniProt P04049) (P04049 whole entry): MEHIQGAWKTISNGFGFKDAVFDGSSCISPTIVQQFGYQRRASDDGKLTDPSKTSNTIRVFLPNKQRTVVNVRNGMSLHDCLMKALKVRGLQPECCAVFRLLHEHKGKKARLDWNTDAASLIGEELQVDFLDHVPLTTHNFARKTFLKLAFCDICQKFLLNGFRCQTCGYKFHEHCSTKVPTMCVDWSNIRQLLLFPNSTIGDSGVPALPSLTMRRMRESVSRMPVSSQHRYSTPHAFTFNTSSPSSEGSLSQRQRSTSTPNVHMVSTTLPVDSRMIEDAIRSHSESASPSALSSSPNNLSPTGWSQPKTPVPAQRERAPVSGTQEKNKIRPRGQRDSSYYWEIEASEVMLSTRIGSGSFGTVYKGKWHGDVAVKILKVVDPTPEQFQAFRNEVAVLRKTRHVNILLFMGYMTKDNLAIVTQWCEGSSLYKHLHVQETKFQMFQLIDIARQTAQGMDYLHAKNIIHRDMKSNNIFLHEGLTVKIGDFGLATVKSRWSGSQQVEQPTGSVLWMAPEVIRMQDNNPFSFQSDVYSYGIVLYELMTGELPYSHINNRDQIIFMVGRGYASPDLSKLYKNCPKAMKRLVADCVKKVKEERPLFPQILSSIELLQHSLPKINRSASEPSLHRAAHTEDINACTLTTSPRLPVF
T1 sequence (P15056 whole entry V600E): as the sequence (P15056 whole entry) above, with V600E counted along it

Broadly, the EC50 is the midpoint of the concentration-response curve. By IC50 is commonly meant the concentration that inhibits the measured activity by half. A word on the Kd: it is the constant that tells how readily two partners part at equilibrium. In the case of `COc1cc2c(Sc3cccc(NC(=O)Nc4cc(C(C)(C)C)on4)c3)ncnc2cc1OCCN1CCN(CCO)CC1` [Ex 84, 1-(5-tert-butylisoxazol-3-yl)-3-(3-(7-(2-(4-(2-hydroxyethyl)piperazin-1-yl)ethoxy)-6-methoxyquinazolin-4-ylthio)phenyl)urea], the EC50 in experiment [1] is above 1000 nM. The S35 entry in experiment [2] (setting [8]) is reported as “D (D > 0.40)”. Moreover, the half-maximal inhibitory concentration (IC50) in experiment [3] is below 250 nM. The dissociation constant (Kd) in experiment [4] was 250 to 500 nM; in experiment [5] it was below 250 nM; in experiment [6], 250 to 500 nM.
For the compound `COc1cc2ncnc(Sc3cccc(NC(=O)Nc4cc(C(F)(F)F)nn4-c4ccc(C)cc4)c3)c2cc1OC` [Ex 199, 1-[3-(6,7-dimethoxyquinazolin-4-ylthio)phenyl]-3-[1-p-tolyl-3-(trifluoromethyl)-1H-pyrazol-5-yl]urea], in experiment [1], the EC50 was above 1000 nM. The S35 result in experiment [2] (asterisk: panel of 321 distinct kinases) was “D* (D > 0.40)”. In experiment [3], the concentration for half-maximal inhibition (IC50) is below 250 nM. Besides, the Kd in experiment [4], in experiment [5] and in experiment [6] was above 1000 nM each time.
Take `COc1cc2ncnc(Oc3cccc(NC(=O)Nc4cc(C(C)(C)C(F)(F)F)nn4-c4ccccc4)c3)c2cc1OC` [Ex 306, 1-(3-(6,7-dimethoxyquinazolin-4-yloxy)phenyl)-3-(1-phenyl-3-(1,1,1-trifluoro-2-methylpropan-2-yl)-1H-pyrazol-5-yl)urea]: the S35 result in experiment [2] (setting [8]) is reported as “D (D > 0.40)”. For the same compound, in experiment [3], the 50% inhibitory concentration (IC50) is below 250 nM. The values for the Kd in experiment [4], in experiment [5] and in experiment [6] were above 1000 nM, 250 to 500 nM and above 1000 nM, respectively.
In the case of `COc1cc2ncnc(Oc3cccc(NC(=O)Nc4cc(C(C)(C)C)nn4-c4ccc(C)nc4)c3)c2cc1OC` [Ex 312, 1-(3-tert-butyl-1-(6-methylpyridin-3-yl)-1H-pyrazol-5-yl)-3-(3-(6,7-dimethoxyquinazolin-4-yloxy)phenyl)urea], the concentration giving a half-maximal response (EC50) in experiment [1] is below 250 nM. In addition, the S35 entry in experiment [2] (setting [8]) was “D (D > 0.40)”. In addition, the concentration for half-maximal inhibition (IC50) in experiment [3] was below 250 nM. The Kd in experiment [4] is 500 to 1000 nM; in experiment [6], 250 to 500 nM; in experiment [7], below 250 nM.
`COc1cc2ncnc(Oc3cccc(NC(=O)Nc4cc(C(C)(C)C)nn4-c4cc[nH]c(=O)c4)c3)c2cc1OC` [Ex 313, 1-(3-tert-butyl-1-(2-oxo-1,2-dihydropyridin-4-yl)-1H-pyrazol-5-yl)-3-(3-(6,7-dimethoxyquinazolin-4-yloxy)phenyl)urea]: the EC50 in experiment [1] lay in the range of 500 to 1000 nM. Also, the S35 result in experiment [2] (setting [8]) was “D (D > 0.40)”. Besides, the half-maximal inhibitory concentration (IC50) in experiment [3] lay in the range of 250 to 500 nM. Further, the Kd in experiment [4] is 250 to 500 nM; in experiment [6], 250 to 500 nM; in experiment [7], below 250 nM.
Regarding `COc1cc2ncnc(Oc3cccc(NC(=O)Nc4cc(C(C)C)nn4-c4cncc(F)c4)c3)c2cc1OC` [Ex 314, 1-(3-(6,7-dimethoxyquinazolin-4-yloxy)phenyl)-3-(1-(5-fluoropyridin-3-yl)-3-isopropyl-1H-pyrazol-5-yl)urea], the EC50 in experiment [1] was below 250 nM. The S35 entry in experiment [2] (setting [8]) is recorded as “D (D > 0.40)”. In experiment [3], the IC50 lay within 250 to 500 nM. For the same compound, the equilibrium dissociation constant (Kd) in experiment [4] is 500 to 1000 nM; in experiment [6] it was 250 to 500 nM; in experiment [7] it was below 250 nM.
On to `COc1cc2ncnc(Oc3cccc(NC(=O)Nc4cc(C(C)(F)F)nn4-c4ccccc4)c3)c2cc1OC` [Ex 318, 1-(3-(1,1-difluoroethyl)-1-phenyl-1H-pyrazol-5-yl)-3-(3-(6,7-dimethoxyquinazolin-4-yloxy)phenyl)urea], for which the EC50 in experiment [1] was below 250 nM. In experiment [2] (setting [8]), the S35 entry is “C (0.20 < C ≦ 0.40)”. For the same compound, in experiment [3], the IC50 is below 250 nM. Besides, the dissociation constant (Kd) was 250 to 500 nM in experiment [4], 250 to 500 nM in experiment [6] and below 250 nM in experiment [7].
Consider `COc1cc2ncnc(Sc3cccc(NC(=O)Nc4cc(C(C)(F)F)nn4-c4ccccc4)c3)c2cc1OC` [Ex 319, 1-(3-(1,1-difluoroethyl)-1-phenyl-1H-pyrazol-5-yl)-3-(3-(6,7-dimethoxyquinazolin-4-ylthio)phenyl)urea], for which the EC50 in experiment [1] was below 250 nM. For the same compound, in experiment [2] (setting [8]), the S35 result is given as “C (0.20 < C ≦ 0.40)”. Moreover, the concentration for half-maximal inhibition (IC50) in experiment [3] was below 250 nM. Moreover, the equilibrium dissociation constant (Kd) in experiment [4] is 500 to 1000 nM; in experiment [6], 250 to 500 nM; in experiment [7] it was below 250 nM.
In the case of `COc1cc2ncnc(Sc3cccc(NC(=O)Nc4cc(C(C)(C)C)nn4-c4cccnc4)c3)c2cc1OC` [Ex 323, 1-(3-tert-butyl-1-(pyridin-3-yl)-1H-pyrazol-5-yl)-3-(3-(6,7-dimethoxyquinazolin-4-ylthio)phenyl)urea], the concentration giving a half-maximal response (EC50) in experiment [1] was in the range of 250 to 500 nM. In addition, the S35 entry in experiment [2] (setting [8]) is “D (D > 0.40)”. The IC50 in experiment [3] is below 250 nM. In addition, the Kd is 500 to 1000 nM in experiment [4], 500 to 1000 nM in experiment [6] and below 250 nM in experiment [7].
For `COc1cc2ncnc(Oc3cccc(NC(=O)Nc4cc(C(C)C)nn4-c4ccccc4)c3)c2cc1OC` [Ex 324, 1-(3-(6,7-dimethoxyquinazolin-4-yloxy)phenyl)-3-(3-isopropyl-1-phenyl-1H-pyrazol-5-yl)urea], the EC50 in experiment [1] is below 250 nM. The S35 entry in experiment [2] (setting [8]) is given as “D (D > 0.40)”. Moreover, the IC50 in experiment [3] is below 250 nM. Besides, the dissociation constant (Kd) in experiment [4] is 250 to 500 nM; in experiment [6] it was 250 to 500 nM; in experiment [7], below 250 nM.
On to `COc1cc2ncnc(Sc3cccc(NC(=O)Nc4cc(C(C)C)nn4-c4ccccc4)c3)c2cc1OC` [Ex 325, 1-(3-(6,7-dimethoxyquinazolin-4-ylthio)phenyl)-3-(3-isopropyl-1-phenyl-1H-pyrazol-5-yl)urea], for which the EC50 in experiment [1] was below 250 nM. The S35 entry in experiment [2] (setting [8]) is given as “C (0.20 < C ≦ 0.40)”. Also, in experiment [3], the concentration for half-maximal inhibition (IC50) was below 250 nM. In addition, the dissociation constant Kd is 250 to 500 nM in experiment [4], 250 to 500 nM in experiment [6] and below 250 nM in experiment [7].
In the case of `COc1cc2ncnc(Sc3cccc(NC(=O)Nc4cc(C(C)(C)C)nn4-c4ccc(C#N)cc4)c3)c2cc1OC` [Ex 329, 1-(3-tert-butyl-1-(4-cyanophenyl)-1H-pyrazol-5-yl)-3-(3-(6,7-dimethoxyquinazolin-4-ylthio)phenyl)urea], the S35 result in experiment [2] (setting [8]) is reported as “D (D > 0.40)”. Moreover, the IC50 in experiment [3] is below 250 nM. Moreover, the Kd in experiment [4] is 250 to 500 nM; in experiment [5] it was 250 to 500 nM; in experiment [6], 500 to 1000 nM.
On to `COc1cc2ncnc(Oc3cccc(NC(=O)Nc4cc(C(C)(C)C)nn4CC(C)C)c3)c2cc1OC` [Ex 332, 1-(3-tert-butyl-1-isobutyl-1H-pyrazol-5-yl)-3-(3-(6,7-dimethoxyquinazolin-4-yloxy)phenyl)urea], for which the EC50 in experiment [1] was above 1000 nM. The S35 entry in experiment [2] (setting [8]) is “C (0.20 < C ≦ 0.40)”. The IC50 in experiment [3] was 500 to 1000 nM. In addition, the Kd is 250 to 500 nM in experiment [4], 250 to 500 nM in experiment [6] and below 250 nM in experiment [7].
On to `COc1cc2ncnc(Oc3cccc(NC(=O)Nc4cc(C(C)(C)C)nn4C(C)C)c3)c2cc1OC` [Ex 334, 1-(3-tert-butyl-1-isopropyl-1H-pyrazol-5-yl)-3-(3-(6,7-dimethoxyquinazolin-4-yloxy)phenyl)urea], for which the EC50 in experiment [1] was in the range of 500 to 1000 nM. Moreover, the S35 result in experiment [2] (setting [8]) was “C (0.20 < C ≦ 0.40)”. In experiment [3], the IC50 lay in the range of 500 to 1000 nM. For the same compound, the figures for the equilibrium dissociation constant (Kd) in experiment [4], in experiment [6] and in experiment [7] were 250 to 500 nM, 250 to 500 nM and below 250 nM, respectively.
As to `COc1cc2ncnc(Sc3cccc(NC(=O)Nc4cc(C(C)(C)C)nn4C(C)C)c3)c2cc1OC` [Ex 335, 1-(3-tert-butyl-1-isopropyl-1H-pyrazol-5-yl)-3-(3-(6,7-dimethoxyquinazolin-4-ylthio)phenyl)urea], the concentration for a half-maximal effect (EC50) in experiment [1] was above 1000 nM. Moreover, the S35 result in experiment [2] (setting [8]) is “C (0.20 < C ≦ 0.40)”. Further, the IC50 in experiment [3] lay within 250 to 500 nM. Besides, the Kd in experiment [4] is 250 to 500 nM; in experiment [6], 250 to 500 nM; in experiment [7], below 250 nM.
As to `COc1cc2ncnc(Oc3cccc(NC(=O)Nc4cc(C(F)(F)F)nn4-c4cccc(C)c4)c3)c2cc1OC` [Ex 338, 1-(3-(6,7-dimethoxyquinazolin-4-yloxy)phenyl)-3-(1-m-tolyl-3-(trifluoromethyl)-1H-pyrazol-5-yl)urea], in experiment [1], the half-maximal effective concentration (EC50) is below 250 nM. Moreover, the S35 result in experiment [2] (setting [8]) is recorded as “C (0.20 < C ≦ 0.40)”. For the same compound, the half-maximal inhibitory concentration (IC50) in experiment [3] is below 250 nM. The Kd is 500 to 1000 nM in experiment [4], 250 to 500 nM in experiment [6] and below 250 nM in experiment [7].
On to `COc1cc2ncnc(Sc3cccc(NC(=O)Nc4cc(C(F)(F)F)nn4-c4cccc(C)c4)c3)c2cc1OC` [Ex 339, 1-(3-(6,7-dimethoxyquinazolin-4-ylthio)phenyl)-3-(1-m-tolyl-3-(trifluoromethyl)-1H-pyrazol-5-yl)urea], for which the S35 result in experiment [2] (setting [8]) is “C (0.20 < C ≦ 0.40)”. For the same compound, the IC50 in experiment [3] is below 250 nM. Also, the dissociation constant Kd in experiment [4] was above 1000 nM; in experiment [5], 250 to 500 nM; in experiment [6] it was 500 to 1000 nM.
In the same order, the values of `COc1cc2ncnc(Oc3cccc(NC(=O)Nc4cc(C5(C(F)(F)F)CC5)nn4-c4ccc(C)cc4)c3)c2cc1OC` [Ex 346, 1-(3-(6,7-dimethoxyquinazolin-4-yloxy)phenyl)-3-(1-p-tolyl-3-(1-(trifluoromethyl)cyclopropyl)-1H-pyrazol-5-yl)urea] are “D (D > 0.40)”, below 250 nM, above 1000 nM, below 250 nM and above 1000 nM.
With `COc1cc2ncnc(Oc3cccc(NC(=O)Nc4cc(C5CCC5)nn4-c4ccccc4)c3)c2cc1OC` [Ex 355, 1-(3-cyclobutyl-1-phenyl-1H-pyrazol-5-yl)-3-(3-(6,7-dimethoxyquinazolin-4-yloxy)phenyl)urea], the concentration giving a half-maximal response (EC50) in experiment [1] was below 250 nM. In experiment [2] (setting [8]), the S35 entry was “C (0.20 < C ≦ 0.40)”. Further, in experiment [3], the IC50 is below 250 nM. For the same compound, the values for the Kd in experiment [4], in experiment [6] and in experiment [7] were 500 to 1000 nM, 500 to 1000 nM and below 250 nM, respectively.

The record behind these values is US8618289B2 (Ambit Biosciences Corporation, priority 2008, dated 2013).
